Each structure is given as a SMILES string. ≈ marks a conversion by molar mass, not a printed value.

On the set-up of series [1]: method as in Wang et al. [2019]. The note with it: from parameters of published reports; ref Wang et al. [2019]; cited from earlier work.
The conditions of series [2]: previously investigated in our laboratory; cited from earlier work.
The conditions of series [3]: introduction, no reference given; cited from earlier work.
Series [4] can be described thus: In vitro drug release, dialysis bag diffusion method. In kind it is physicochemical. The note with it: pH 6.8 phosphate buffer, 37 °C. The method, then:
A dialysis bag diffusion method was used to evaluate in vitro drug release profiles of both KME and KME/HP-β-CD (Zhao et al. [2021]). 2 mg of KME was dispersed in water, and then transferred to a dialysis bag and placed in a beaker containing 40 mL of pH 6.8 phosphate buffer. The study was carried out at 37 ± 0.5 °C and a magnetic stirring speed of 100 rpm. Aliquots of approximately 4 mL were taken out at predetermined time intervals (10 min, 15 min, 30 min, 1 h, 2 h, 3 h, and 6 h) and replaced by the same volume of fresh buffer to maintain a constant volume of dissolution media during sampling. The samples were filtered and analyzed by HPLC.

The conditions of series [5]: previously investigated in our laboratory; cited from earlier work. This is another data set of the same source.
A short description of series [6]: Cell viability study (CCK-8 assay). In kind it is cell-based. The note with it: human, Caco-2, 5–100 μg/mL, read-out: viability of Caco-2 cells. The method, then:
The cytotoxicity of KME and KME/HP-β-CD was evaluated in Caco-2 cells using the cell counting kit-8 (CCK-8) assay. Caco-2 cells were cultured in DMEM containing 20% FBS and incubated at 37 °C with 5% CO2. Caco-2 cells (1 × 10^4 cell/well) were seeded in 96-well plates and incubated for 24 h. Then, 100 μL of fresh medium containing KME or KME/HP-β-CD (5–100 µg/mL) was added. After 24 h, the culture medium was changed with CCK-8 solution and the samples were incubated for another 2 h. The optical density (OD) was read at 490 nm (BioTek Instruments, Winooski).
(In general: Formazan colour is commonly taken as a measure of viable cells.)

Series [7] is described as follows: In vivo pharmacokinetics study after oral administration. The note with it: oral gavage 12 mg/kg, male SD rats, n = 6; for AUC0–12 (AUC0-t): 12 mg/kg. The procedure: The in vivo pharmacokinetic study was approved by the Institutional Animal Ethical Committee, Fujian Medical University, China. Male SD rats (200 ± 20 g) have fasted for 12 h with free access to water before oral administration. The rats were divided randomly into two groups (n = 6) and received KME or KME/HP-β-CD by oral gavage at a drug dose of 12 mg/kg. The KME powder and KME/HP-β-CD were dispersed in deionized water containing 0.1% sodium carboxymethylcellulose (CMC-Na). Blood samples were collected at predetermined intervals (0.05, 0.1, 0.16, 0.5, 1, 3, 6, 9, and 12 h) from the retroorbital venous sinus, and placed in heparinized anticoagulant tubes. After centrifugation at 4,000 rpm for 10 min at 4 °C, the plasma was separated and stored at −80 °C until UPLC-MS/MS analysis.
Plasma samples were prepared by the protein precipitation method (Chen et al. [2013]). Briefly, an aliquot of 50 μL plasma sample and 200 μL of acetonitrile containing 10 ng/mL gelsemine (internal standard, IS) were added to a centrifuge tube. The mixture was vortexed for 5 min and centrifuged at 18,000 rpm for 10 min at 4 °C. Then the supernatant was transferred and injected into the UPLC-MS/MS system for analysis. Chromatographic separation was performed using a UPLC instrument (Agilent 1290, Agilent Technologies, USA), equipped with a mass spectrometer (QTRAP® 5500, AB SCIEX, USA). The mass spectrometer detector was performed with multiple reactions monitoring scan mode at m/z 307.2 → 180.1 for KME and m/z 323.1 → 236.1 for IS. More detailed information about UPLC-MS/MS is provided in the supplementary material. The main pharmacokinetic parameters such as T1/2, Cmax, Tmax, and area under the curve (AUC), were determined using the non-compartmental model with DAS 3.2.1 software. The relative bioavailability F was calculated by the following equation: F(%) =(AUC0–t (inclusion complexes)/AUC0–t(KME)) × 100%

The nature of series [8]: Saturation solubility in distilled water. As to conditions: 37 °C, saturated solution. In kind it is physicochemical. The procedure: Excess KME and KME/HP-β-CD were added to distilled water to obtain a supersaturated solution (Arya & Raghav [2021]). The samples were shaken at 37 °C for 24 h and 100 rpm. After centrifugation, the supernatants were filtered through a 0.45 μm membrane and the solubility was determined (n = 3) with the validated HPLC method.

Series [9] has as its system rat intestines (everted gut sac: duodenum, jejunum, ileum, colon). The series is described as follows: Ex vivo everted gut sac experiments. In kind it is in vitro ADME. The procedure:
The protocol of the animal study was approved by the Institutional Animal Care and Use Committee of Fujian Medical University (permit number: SYXK (Min) 2018-0001), China. Male SD rats weighing 220–250 g were fasted overnight before the experiment and with free access to water. The everted gut sac method was carried out as in previously published reports with minor modifications (Tambe et al. [2019]). Rats were anesthetized and sacrificed, and the intestinal segments of interest were identified and dissected (duodenum, starting 1 cm from the stomach; jejunum, 10–18 cm from the stomach; ileum, starting 8 cm above the cecum; colon, 5 cm below the cecum) (Rong et al. [2013]).
Each obtained intestinal segment was immediately washed with ice-cold Krebs-Ringer (K-R) solution, and then turned out with a glass rod, and one end was ligated with a thread. After inserting the glass tube, the other open end of the everted sacs was also tightened. Then blank K-R solution (2.5 mL) was added to the everted gut sacs. The everted segments were preincubated in 50 mL of K-R solution at 37 °C for 5 min. […] After the experiment, the length of each intestinal segment was accurately measured, and the concentration of KME was measured by HPLC. The apparent permeability coefficient (Papp) values of KME were calculated by the following equation (Tambe et al. [2019]): […]

A short description of series [10]: Phase solubility study (Higuchi and Connors). In kind it is physicochemical. The method, then: The phase solubility studies were carried out according to the method of Higuchi and Connors (Jansook et al. [2018]; Higuchi & Connors [1965]). Briefly, an excess of KME was added to 200 μL aqueous solutions of different HP-β-CD concentrations (1, 2, 4, 6, 8, and 10 mM). All samples were shaken at 25 °C and 100 rpm for 72 h until reaching equilibrium. Subsequently, the samples were withdrawn and filtered through a 0.45 µm membrane to remove undissolved KME. The concentration of KME in the HP-β-CD solutions was determined by an HPLC method, and the analyses were performed in triplicate (n = 3). The apparent stability constants (Ks) were calculated by the following equation (Nair et al. [2014]; Pinto et al. [2020]): Ks = slope/So (1-slope), where So represents the intrinsic solubility of the drug, and the slope is the slope of the linear KME-CD phase solubility diagram.

Series [11] can be described thus: Caco-2 permeability study. In kind it is in vitro ADME. The note with it: human, 50 μg/mL KME equivalent. The procedure:
Caco-2 cells were seeded at a density of 5 × 10^5 cells/well on top of 12-well Transwell® polycarbonate filters, and cultured in a 5% CO2 incubator at 37 °C for 21 days. The medium was changed every 2 days in the first week, and then every day for the next two weeks. At the end of 21 days, a Millicell-ERS epithelial voltmeter (Merck, USA) was used to analyze the transepithelial electrical resistance (TEER) value of Caco-2 cells. Only monolayers with TEER values higher than 600 Ω·cm^2 can be used in subsequent transport experiments (Chen et al. [2018]).
To investigate the permeability of KME and KME/HP-β-CD inclusion complexes in Caco-2 cells, the apical to basal (A-B) and basal to apical (B-A) transport of KME was measured. After preincubation for 30 min with blank HBSS, 0.5 mL of HBSS medium containing KME or KME/HP-β-CD (equivalent KME concentration of 50 μg/mL) was added to the apical side in the A-B direction experiments, and 1.5 mL of fresh HBSS was added to the basolateral side of the inserts as the acceptor phase. In contrast, for the B-A direction experiments, 1.5 mL of HBSS medium containing KME or KME/HP-β-CD (equivalent KME concentration of 50 μg/mL) was added to the basolateral side, and 0.5 mL of fresh HBSS was added to the apical side of the inserts as the acceptor phase. The plates were incubated in a shaker at 37 °C. 100 μL of the sample were taken from the acceptor side at predetermined time intervals (30, 60, 90, and 120 min) and replaced by the same volume of fresh HBSS to maintain a constant volume. Finally, the obtained samples were analyzed by HPLC. The Papp values (cm/s) were determined using the following equation (McCartney et al. [2019]; Patel & Sawant [2019]): Papp=(dQ/dt)/(A×C0),where dQ/dt is the steady−state flux, A is the surface area of the monolayer (1.12 cm^2), and C0 is the donor concentration (50 μg/mL). TEER (Ω·cm^2)=(TEER (Ω) –TEER blank (Ω)) × A(cm^2)
Here, TEER (Ω), Caco-2 monolayers; TEER blank (Ω), the insert without cells; A (cm^2), 1.12 cm^2.

A word on the viability: it is the share of living cells, or the viability signal relative to a control. As usually defined, the AUC(0-inf) is the area under the concentration-time curve extrapolated to infinity. Low readings indicate low exposure, high ones high exposure. As a reminder, the Cmax is the highest concentration seen after dosing. For orientation: Tmax means the time from dosing to the highest level. What is called half-life is the time needed for the level to fall by half in the phase considered. Read a high half-life as slow decline. One may read the solubility as the dissolved amount per volume that the medium holds. As a reminder, the Papp A→B is how fast a substance crosses the layer from the apical side. What is called Papp B→A is the apparent permeability from the basolateral to the apical side of a cell layer. As for `C=C[C@@]12CN(C)[C@H]3C[C@]14C(=Nc1ccccc14)[C@H]1C[C@@H]2[C@@H]3CO1` [KME, Koumine], in series [1], the “absolute bioavailability (Fabs)” value was 1%. Further, the “absolute bioavailability (Fabs) in beagle dogs” value in series [2] is recorded as 5.67%. The solubility in water in series [3] is below 1000 µg/mL. In series [4] (1 h), the “release rate in the first 1 h” value was 40%. Besides, the “release rate within 6 h” value in series [4] (6 h) is recorded as 70%. In addition, in series [5], the “absolute bioavailability (Fabs) in rats” value was 14.30%. The viability at 24 h in [6] was above 90%. In addition, the “AUC0–12 (AUC0-t)” value in [7] (listed as KME suspension) was 72.50 ± 15.25 ng·h/mL. In addition, in series [7] (listed as Raw KME), the “AUC0–12 (AUC0-t)” value worked out at 26.48 ± 17.80 ng·h/mL. Moreover, in series [7] (rat, plasma), the AUC(0-inf) was determined as 30.2 ± 16.6 ng·h/mL, the Cmax was found to be 22.8 ± 15.6 ng/mL, the Tmax worked out at 19.8 ± 12 min and the half-life was 51.6 ± 7.2 min. For the same molecule, in series [8], the concentration in solution (solubility at 24 h) came to 700 µg/mL (≈ 2280 µM). In addition, the “order of absorption flux in the intestinal segments” value in [9] (100 μg/mL, up to 120 min) is recorded as “ileum > duodenum > jejunum > colon”. Besides, in [9] (colon, verapamil 100 μg/mL (inhibitor of P-gp)), the “KME absorption in colon segment with verapamil versus without” value is “no significant difference”. In addition, the solubility at 72 h in series [10] (10 mM HP-β-CD aqueous solution, 25 °C, 72 h, read-out: solubility of KME at 10 mM HP-β-CD) is 1810 µg/mL (≈ 5910 µM). The “increase of KME solubility at 10 mM HP-β-CD” value in series [10] (10 mM HP-β-CD versus water) was found to be 2.59 fold. For the same molecule, the solubility thermodynamic at 72 h in series [10] (water, 25 °C, 72 h, no HP-β-CD, read-out: equilibrium solubility of KME in water) worked out at 700 ± 20 µg/mL (≈ 2280 µM). Moreover, the efflux ratio at 120 min, 50 µg/mL in [11] (read-out: efflux ratio (B-A permeability/A-B permeability)) was 1.74. Moreover, in series [11] (apical to basal, 120 min), the Papp A→B at 120 min, 50 µg/mL is 7.78 ± 2.01 ×10⁻⁶ cm/s. Further, the Papp B→A at 120 min, 50 µg/mL in series [11] (basal to apical, 120 min) was 13.5 ± 1.72 ×10⁻⁶ cm/s.

(Values after PMC8592623, “Enhanced oral bioavailability of koumine by complexation with hydroxypropyl-β-cyclodextrin: preparation, optimization, ex vivo and in vivo characterization” (Drug Delivery, 2021).)
